Results reported in patent US10562935B2, “Stapled peptides and uses thereof” (London Health Sciences Centre Research Inc., priority 2015, dated 2020).
Bridges are numbered along the chain shown (N, C = ends).

Tests used:
[1] = Direct HA-binding ELISA of biotinylated peptides on HA coated plates (Example 4); design: key to HA binding: absorbance (color) read at 450 nm; conditions: for HA binding: as repeated in tables 16, 18, 20; for HA direct binding (OD): optical density, summary tables 15, 17, 19
Outline: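 N-terminally biotinylated peptides (AEEA spacer) added to HA-coated wells at 0.8 or 0.08 μM, n=3, overnight at 4° C with shaking; biotin-labeled 7 kDa RHAMM as positive control. Bound peptide detected with streptavidin-HRP (1 hr, room temperature) and TMB substrate (5-10 min), absorbance at 450 nm.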

[2] = system: RHAMM-overexpressing (LR21) cells; assay: Cell migration assay (Boyden chamber, Chemicon ECM510); assay type: cell-based; conditions: for Migration (% inhib.): % inhibition relative to positive control; for inhibition of cell migration (in words): 10 ng/mL peptide, 20 hours, compared to 30% serum control
Outline: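 Serum-starved LR21 cells (7.5×10^4) placed in the upper Boyden chamber with or without 10 ng/mL peptide, with 30% FBS in DMEM as lower-chamber chemoattractant. Cells crossing the membrane after 20 h quantified by CyQUANT GR fluorescence (480/520 nm); mean of n=3, compared with 30% serum control.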

[3] = system: IMR90 human fetal lung fibroblasts; assay: Fibrosis assay: active TGF-β levels in TGF-β treated fibroblasts (ELISA); assay type: cell-based; conditions: for Fibrosis (% inhib.): % inhibition relative to positive control; for inhibition of fibrosis (active TGF-β, in words): 10 ng/mL peptide, 48 hours, compared to +TGFβ1 control
Description: Compounds 132, 133, 135, 150, 152, 157-161, 265-269, 275, 277, and 278 were evaluated for their ability to inhibit fibrosis. IMR90 human fetal lung fibroblasts were obtained from ATCC and maintained in DMEM supplemented with 10% fetal bovine serum. In order to examine the effect of peptides on myofibroblast differentiation, 80% confluent cultures were serum starved overnight prior to addition of TGF-β (2 ng/mL, R&D Systems). Cells were treated with TGF-β for 24 hours prior to addition of peptides (10 ng/mL). 48 hours after addition of peptides, culture supernatants were collected and levels of active TGF-β measured using commercially available TGF-β ELISA (Quantikine, R&D Systems).
Values are the Mean and SDM n=3 replicates. *p<0.05, **p<0.01, ***p<0.001 when compared to the +TGFβ1 control. In FIG. 47, where bars are labeled with two compound numbers (“133/150” and “135/152”) this means that the data were pooled for the indicated compounds, i.e., for the non-acetylated and acetylated versions of the indicated peptides.

[4] = system: RHAMM-overexpressing (LR21) cells; assay: Cell invasion assay (Boyden chamber with MATRIGEL, Chemicon ECM555); assay type: cell-based; conditions: for inhibition of cellular invasion (in words): 10 ng/mL peptide, 20 hours, compared to 30% serum control; for Invasion (% inhib.): % inhibition relative to positive control, 10 ng/mL of peptide
Outline: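 Serum-starved RHAMM-overexpressing LR21 cells (7.5×10^4) placed in upper Boyden chamber over MATRIGEL-coated filter, with or without 10 ng/mL peptide; 30% FBS/DMEM chemoattractant below. Invaded cells quantified after 20 h by CyQUANT GR fluorescence (480/520 nm); mean ± SD, n=3, versus 30% serum control.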

[5] = Function blocking score: total percent inhibition over migration, invasion, inflammation and fibrosis assays divided by number of assays; assay type: cell-based; conditions: total percent inhibition for all assays tested divided by number of assays

| Substance | HA binding [1] | HA direct binding (OD) [1] [OD] | Migration (% inhib.) [2] [% inhib.] | Fibrosis (% inhib.) [3] [% inhib.] | inhibition of cellular invasion (in words) [4] | Invasion (% inhib.) [4] [% inhib.] | Function blocking score (FBS) [5] | inhibition of cell migration (in words) [2] | inhibition of fibrosis (active TGF-β, in words) [3] |
| --- | --- | --- | --- | --- | --- | --- | --- | --- | --- |
| Ac-(cyclo-10-14, cyclo-15-19)-KIKHVVKLK[EENSK][KKSEE]SKLRSQLVKRK-NH2 (Ac-KIKHVVKLKEENSKKKSEESKLRSQLVKRK-NH2; lactam 10-14, 15-19; SMILES CC[C@H](C)[C@H](NC(=O)[C@H](CCCCN)NC(C)=O)C(=O)N[C@@H](CCCCN)C(=O)N[C@@H](Cc1c[nH]cn1)C(=O)N[C@H](C(=O)N[C@H](C(=O)N[C@@H](CCCCN)C(=O)N[C@@H](CC(C)C)C(=O)N[C@@H](CCCCN)C(=O)N[C@H]1CCC(=O)NCCCC[C@@H](C(=O)N[C@H]2CCCCNC(=O)CC[C@@H](C(=O)N[C@@H](CO)C(=O)N[C@@H](CCCCN)C(=O)N[C@@H](CC(C)C)C(=O)N[C@@H](CCCNC(=N)N)C(=O)N[C@@H](CO)C(=O)N[C@@H](CCC(N)=O)C(=O)N[C@@H](CC(C)C)C(=O)N[C@H](C(=O)N[C@@H](CCCCN)C(=O)N[C@@H](CCCNC(=N)N)C(=O)N[C@@H](CCCCN)C(N)=O)C(C)C)NC(=O)[C@H](CCC(=O)O)NC(=O)[C@H](CO)NC(=O)[C@H](CCCCN)NC2=O)NC(=O)[C@H](CO)NC(=O)[C@H](CC(N)=O)NC(=O)[C@H](CCC(=O)O)NC1=O)C(C)C)C(C)C) [Compound 268] | 0.19 | 0.19 | 0 | 0 | significantly inhibited cellular invasion | 50 | 14 |  |  |
| Ac-(cyclo-7-11, cyclo-28-32)-NLKQKI[EHVVK]LKDENSQLKSEVSKLR[EQLVK]RKQN-NH2 (Ac-NLKQKIEHVVKLKDENSQLKSEVSKLREQLVKRKQN-NH2; lactam 7-11, 28-32; SMILES CC[C@H](C)[C@H](NC(=O)[C@H](CCCCN)NC(=O)[C@H](CCC(N)=O)NC(=O)[C@H](CCCCN)NC(=O)[C@H](CC(C)C)NC(=O)[C@H](CC(N)=O)NC(C)=O)C(=O)N[C@H]1CCC(=O)NCCCC[C@@H](C(=O)N[C@@H](CC(C)C)C(=O)N[C@@H](CCCCN)C(=O)N[C@@H](CC(=O)O)C(=O)N[C@@H](CCC(=O)O)C(=O)N[C@@H](CC(N)=O)C(=O)N[C@@H](CO)C(=O)N[C@@H](CCC(N)=O)C(=O)N[C@@H](CC(C)C)C(=O)N[C@@H](CCCCN)C(=O)N[C@@H](CO)C(=O)N[C@@H](CCC(=O)O)C(=O)N[C@H](C(=O)N[C@@H](CO)C(=O)N[C@@H](CCCCN)C(=O)N[C@@H](CC(C)C)C(=O)N[C@@H](CCCNC(=N)N)C(=O)N[C@H]2CCC(=O)NCCCC[C@@H](C(=O)N[C@@H](CCCNC(=N)N)C(=O)N[C@@H](CCCCN)C(=O)N[C@@H](CCC(N)=O)C(=O)N[C@@H](CC(N)=O)C(N)=O)NC(=O)[C@H](C(C)C)NC(=O)[C@H](CC(C)C)NC(=O)[C@H](CCC(N)=O)NC2=O)C(C)C)NC(=O)[C@H](C(C)C)NC(=O)[C@H](C(C)C)NC(=O)[C@H](Cc2c[nH]cn2)NC1=O) [Compound 278] | 0.125 | 0.125 | 45 | 0 |  | 0 | 12 | significantly inhibit cell migration | strong trend towards inhibition of fibrosis |
| Ac-(cyclo-10-14, cyclo-15-19)-KIKHVVKLK[KENSE][EKSEK]SKLRSQLVKRK-NH2 [Compound 269] | 0.19 | 0.19 | 61 | 0 |  | 0 | 13 | significantly inhibit cell migration |  |
| Ac-(cyclo-28-32)-NLKQKIKHVVKLKDENSQLKSEVSKLR[EQLVK]RKQN-NH2 (Ac-NLKQKIKHVVKLKDENSQLKSEVSKLREQLVKRKQN-NH2; lactam 28-32; SMILES CC[C@H](C)[C@H](NC(=O)[C@H](CCCCN)NC(=O)[C@H](CCC(N)=O)NC(=O)[C@H](CCCCN)NC(=O)[C@H](CC(C)C)NC(=O)[C@H](CC(N)=O)NC(C)=O)C(=O)N[C@@H](CCCCN)C(=O)N[C@@H](Cc1c[nH]cn1)C(=O)N[C@H](C(=O)N[C@H](C(=O)N[C@@H](CCCCN)C(=O)N[C@@H](CC(C)C)C(=O)N[C@@H](CCCCN)C(=O)N[C@@H](CC(=O)O)C(=O)N[C@@H](CCC(=O)O)C(=O)N[C@@H](CC(N)=O)C(=O)N[C@@H](CO)C(=O)N[C@@H](CCC(N)=O)C(=O)N[C@@H](CC(C)C)C(=O)N[C@@H](CCCCN)C(=O)N[C@@H](CO)C(=O)N[C@@H](CCC(=O)O)C(=O)N[C@H](C(=O)N[C@@H](CO)C(=O)N[C@@H](CCCCN)C(=O)N[C@@H](CC(C)C)C(=O)N[C@@H](CCCNC(=N)N)C(=O)N[C@H]1CCC(=O)NCCCC[C@@H](C(=O)N[C@@H](CCCNC(=N)N)C(=O)N[C@@H](CCCCN)C(=O)N[C@@H](CCC(N)=O)C(=O)N[C@@H](CC(N)=O)C(N)=O)NC(=O)[C@H](C(C)C)NC(=O)[C@H](CC(C)C)NC(=O)[C@H](CCC(N)=O)NC1=O)C(C)C)C(C)C)C(C)C) [Compound 277] | 0.12 | 0.12 | 63 | 52 |  | 0 | 29 | significantly inhibit cell migration |  |
| Ac-KIKHVVKLKDENSQLKSEVSKLRSQLVKRK-NH2 [Compound 265] | 0.10 | 0.10 | 63 | 0 | significantly inhibited cellular invasion | 46 | 28 | significantly inhibit cell migration |  |
| Ac-(cyclo-10-14, cyclo-15-19)-KIKHVVKLK[EENSK][EKSEK]SKLRSQLVKRK-NH2 (Ac-KIKHVVKLKEENSKEKSEKSKLRSQLVKRK-NH2; lactam 10-14, 15-19; SMILES CC[C@H](C)[C@H](NC(=O)[C@H](CCCCN)NC(C)=O)C(=O)N[C@@H](CCCCN)C(=O)N[C@@H](Cc1c[nH]cn1)C(=O)N[C@H](C(=O)N[C@H](C(=O)N[C@@H](CCCCN)C(=O)N[C@@H](CC(C)C)C(=O)N[C@@H](CCCCN)C(=O)N[C@H]1CCC(=O)NCCCC[C@@H](C(=O)N[C@H]2CCC(=O)NCCCC[C@@H](C(=O)N[C@@H](CO)C(=O)N[C@@H](CCCCN)C(=O)N[C@@H](CC(C)C)C(=O)N[C@@H](CCCNC(=N)N)C(=O)N[C@@H](CO)C(=O)N[C@@H](CCC(N)=O)C(=O)N[C@@H](CC(C)C)C(=O)N[C@H](C(=O)N[C@@H](CCCCN)C(=O)N[C@@H](CCCNC(=N)N)C(=O)N[C@@H](CCCCN)C(N)=O)C(C)C)NC(=O)[C@H](CCC(=O)O)NC(=O)[C@H](CO)NC(=O)[C@H](CCCCN)NC2=O)NC(=O)[C@H](CO)NC(=O)[C@H](CC(N)=O)NC(=O)[C@H](CCC(=O)O)NC1=O)C(C)C)C(C)C) [Compound 266] | 0.24 | 0.24 | 61 | 24 | significantly inhibited cellular invasion | 50 | 28 | significantly inhibit cell migration | strong trend towards inhibition of fibrosis |
| Ac-NLKQKIKHVVKLKDENSQLKSEVSKLRSQLVKRKQN-NH2 [Compound 275] | 0.11 | 0.11 | 60 | 0 |  | 0 | 12 | significantly inhibit cell migration |  |
